Assays:
[1] = system: MMP- and αvβ3 integrin receptor-positive U87MG tumor; experiment: In vivo optical imaging of U87MG tumor-bearing mice; settings: for fluorescent signals in the tumor over time: 0.5 nmol injected
Protocol: Female athymic nude mice were supplied from Harlan at 4 to 5 weeks of age. The U87MG tumor model was generated by subcutaneous injection of 5×10^6 cells in Matrigel (BD Biosciences, Sparks, Md.) into the right front flank of female athymic nude mice at a volume of about 80 μl. The mice were then used for optical studies when the tumor volume reached about 300 mm^3. All animal studies were conducted in accordance with the principles and procedures outlined in the Guide for the Care and Use of Laboratory Animals and were approved by the Institutional Animal Care and Use Committee of Clinical Center, NIH.
Optical imaging acquirement and analysis were done using a Maestro 2.10 in vivo imaging system (CRI). […] The molar concentration of each samples were calculated by the sample weight. At 1, 2, 3, and 4 hours post-injection, the mice were subjected to optical imaging using appropriate filters for Cy5.5 and CW800. For the inhibition experiment, MMP inhibitor was intratumorally injected into tumor bearing mice 30 minutes before the imaging agent injection. After image acquisition, spectral unmixing yielded the pseudocolor images of the pure spectrum of respective dyes. Images were normalized and analyzed using Maestro software. For quantitative comparison, regions of interest (ROI) were drawn over tumors and muscle, and the average signal ([…]) for each area was measured. Values were expressed as mean±s.d. for a group of three animals.
It should be noted that only a limited dose of dye-labeled peptide probe like compounds 5 and 7 can be injected for whole body imaging, because of its high fluorescent background from the dye. In contrast, since fluorogenic probes are strongly quenched and a majority of the probe is activated at the target site, higher doses of the imaging agents of the present invention can be injected to enhance the ratio of region-of-interest (ROI) signal of tumor to normal tissue, muscle (T/N), at very early times. After injection, in vivo optical imaging was performed for 4 hours using a small animal imaging system (Maestro 2) equipped with appropriate filters for Cy5.5 and CW800.

[2] = system: MMP-positive SCC-7 tumor; experiment: In vivo NIR fluorescence imaging of SCC-7 tumor-bearing mice; settings: intravenous, imaging for 24 hours, compared to other MMP-Pns and MMPSense 680
Protocol: Squamous cell carcinoma SCC-7 were cultured in RPMI 1640 medium containing 10% (v/v) fetal bovine serum (Invitrogen, Carlsbad, Calif.) supplemented with penicillin (100 μg/ml) and streptomycin (100 μg/ml) at 37° C. with 5% CO2. The SCC-7 tumor model was developed by subcutaneous injection of 1×10^6 cells into the right front flank of female athymic nude mice (Harlan Laboratories, Indianapolis, Ind.). The mice were used for optical studies when the tumor volume reached about 300 mm^3. […]
Optical image acquisition and analysis were done using a Maestro 2 imaging system (Cambridge Research & Instrumentation, Inc. (CRI), Woburn, Mass.). […] Images were normalized and analyzed by using Maestro software. For quantitative comparison, the regions of interest (ROI) were drawn over tumor (T) and normal tissue (N, muscle), and the average signal (×10^6 photons×cm^−2×s^−1) for each area was measured. […]
The MMP-Pns imaging agents used in Example 2, were then used to create a video image of the activity of MMPs in vivo. […] The MMP-P12 generated strong NIR fluorescence signals as early as 20 to 30 minutes after the probe injection and enabled clear visualization of MMPs in the tumor region thereafter.

[3] = system: U87MG cells; experiment: Fluorescent microscopic study of receptor specificity in fixed U87MG cells; assay type: cell-based, human
Protocol: The U87MG cell is known to have high αvβ3 integrin density on the cell surface. […] Next, receptor specificity of the probes in cell culture was verified by fluorescent microscopic studies. […] (data not shown).

[4] = system: U87MG tumor; experiment: Ex vivo biodistribution in U87MG tumor-bearing mice; settings: 4 hour time point
Protocol: Ex vivo imaging of excised tumor and organs further confirmed the targeting specificity and activation of the probes (data not shown). At 4 hours post-injection, the mice were sacrificed and major organ tissues and tumors were harvested, and placed on black paper for ex vivo imaging. For quantitative comparison, ROIs were drawn over tumors and the other organs, and the average signal for each area was measured. The results were presented as the average scaled signal from the organs and tumors. Values were expressed as mean±s.d. for a group of three animals.
T/N ratios are illustrated in FIG. 12A. […] After whole-mouse imaging at a 4 hour time point, tumors and organs were carefully removed and the biodistribution of compounds 4 and 6 was evaluated (FIG. 12B).

Molecule: CC1(C)C(/C=C/C2=C(Oc3ccc(S(=O)(=O)O)cc3)C(=C/C=C3/N(CCCCS(=O)(=O)O)c4ccc(S(=O)(=O)O)cc4C3(C)C)/CCC2)=[N+](CCCCCC(=O)NCCCC[C@@H]2NC(=O)[C@@H](Cc3ccc(O)cc3)NC(=O)[C@H](CC(=O)O)NC(=O)CNC(=O)[C@H](CCCNC(=N)N)NC2=O)c2ccc(S(=O)(=O)O)cc21 [compound 7]
- fluorescent signals in the tumor over time [1]: gradually increased

Molecule: MMP-P4: Cy5.5-GPLGVRGK(BHQ3)GG-R, R = -NH(CH2CH2O)4H
- onset of activation in vivo, NIR fluorescence in tumor region [2]: early onset of activation in vivo

Molecule: CC[N+]1=C(/C=C/C=C/C=C2/N(CCCCCC(=O)NCC(=O)N3CCC[C@H]3C(=O)N[C@@H](CC(C)C)C(=O)NCC(=O)N[C@H](C(=O)N[C@@H](CCCNC(=N)N)C(=O)NCC(=O)N[C@@H](CCCCN)C(=O)NCC(=O)NCC(=O)NCCCC[C@@H]3NC(=O)[C@@H](Cc4ccc(O)cc4)NC(=O)[C@H](CC(=O)O)NC(=O)CNC(=O)[C@H](CCCNC(=N)N)NC3=O)C(C)C)c3ccc4c(S(=O)(=O)O)cc(S(=O)(=O)O)cc4c3C2(C)C)C(C)(C)c2c1ccc1c(S(=O)(=O)O)cc(S(=O)(=O)O)cc21 [compound 5]
- fluorescent signals on the cell membranes ([3]; 30 minutes of incubation at 37° C.): Strong positive fluorescent signals
- binding with receptor blocking by excess c(RGDyK) ([3]; blocking dose of c(RGDyK) 10 μM): significantly decreased
- fluorescent signals in the tumor over time [1]: gradually increased

Molecule: CCN(CC)c1ccc2nc3ccc(/N=N/c4ccc(N(C)CCCC(=O)NCCCC[C@H](NC(=O)CNC(=O)[C@H](CCCNC(=N)N)NC(=O)[C@@H](NC(=O)CNC(=O)[C@H](CC(C)C)NC(=O)[C@@H]5CCCN5C(=O)CNC(=O)CCCCCN5/C(=C/C=C/C=C/C6=[N+](CC)c7ccc8c(S(=O)(=O)O)cc(S(=O)(=O)[O-])cc8c7C6(C)C)C(C)(C)c6c5ccc5c(S(=O)(=O)O)cc(S(=O)(=O)[O-])cc65)C(C)C)C(=O)NCC(=O)NCC(=O)NCCCC[C@@H]5NC(=O)[C@@H](Cc6ccc(O)cc6)NC(=O)[C@H](CC(=O)O)NC(=O)CNC(=O)[C@H](CCCNC(=N)N)NC5=O)cc4)cc3[n+](-c3ccccc3)c2c1 [compound 4]
- ex vivo biodistribution (site of activation) [4]: predominantly activated in the tumors
- NIR fluorescence signal from the tumor with MMP inhibitor ([1]; MMP inhibitor intratumorally 30 minutes before probe): significantly reduced
- tumor uptake with excess unlabeled c(RGDyK) ([1]; c(RGDyK) 200 nmol, 30 minutes post-injection): effectively blocked
- brightness of NIR fluorescent images ([1]; from 1 hour post-injection): brighter NIR fluorescent images compared to compound 6
- visualization of MMP expression in MMP positive tumor ([1]; intravenous, imaging for 4 hours): enabled visualization of MMP expression

From US10646591B2, “Imaging agents for imaging protease activity and uses thereof” (The United States of America, as represented by the …, priority 2011, dated 2020)
